Measurements reported in patent publication US9061015B2, “Stable solid dispersion of a derivative of vinca alkaloid and process for manufacturing it” (PIERRE FABRE MEDICAMENT, priority 2004, dated 2015).

How the values were obtained:
[1] = Physicochemical stability on storage at 25° C./60% RH: variation of the content of impurities compared with t0; conditions: after 6 months 25° C./60% RH compared with t0
Method: Variation of the content of impurities (in % relative) after 6 months 25° C./60% RH compared with t0.
Other hydrophilic polymers such as polyethyleneglycols were tested.

[2] = Required storage temperature (stability); format: physicochemical; conditions: regardless of form (amorphous or crystalline) and degree of division

CCC1=C[C@@H]2CN(C1)Cc1c([nH]c3ccccc13)[C@@](C(=O)OC)(c1cc3c(cc1OC)N(C)[C@H]1[C@@](O)(C(=O)OC)[C@H](OC(C)=O)[C@]4(CC)C=CCN5CC[C@]31[C@@H]54)C2 [Vinorelbine ditartrate, vinorelbine ditartrate]
4-0-deacetylvinorelbine impurity, variation of the content [1]: +0.05 % relative | 6′-N-methylvinorelbine impurity, variation of the content [1]: +0.05 % relative | 6′-N-oxyvinorelbine impurity, variation of the content [1]: +0.37 % relative | S/D6 impurity, variation of the content [1]: +1.02 % relative | Total impurities, variation of the content [1]: +1.87 % relative | temperature at which it must be kept [2]: below −15 °C
